In paper PMC8949503, “Radiosynthesis and Preclinical Evaluation of Bispecific PSMA/FAP Heterodimers for Tumor Imaging” (Pharmaceuticals, 2022):

Assays:
[1] = system: 22Rv1 tumor-bearing nude mice; test: tissue biodistribution and blocking in 22Rv1 tumor-bearing nude mice; assay type: in vivo; conditions: 1 h p.i.
Procedure: (§1) For the biodistribution and micro-PET imaging studies, male BALB/c nude mice (6–8 weeks) were subcutaneously inoculated with 1 × 10^7 22Rv1 or 5 × 10^6 A549-FAP cells in the right shoulder. Mice were imaged or used in the biodistribution studies when the tumor reached 5–10 mm in diameter.
(§2) Mice bearing 22Rv1 or A549-FAP (n = 4 in each group) tumors were euthanized 60 min after intravenous administration of each tracer (740–1480 KBq/mouse). In the blocking group, the same experiment was conducted by co-injecting 50 μg of 2-PMPA for mice bearing 22Rv1 tumors or 50 μg of DOTA-FAPI-04 for mice bearing A549-FAP tumors. The organs of interest and tumors were quickly dissected and weighed. Radioactivity was assessed using a γ-counter and calculated as the percentage injected dose per gram (%ID/g).

[2] = system: A549-FAP tumor-bearing nude mice; test: tissue biodistribution and blocking in A549-FAP tumor-bearing nude mice; assay type: in vivo; conditions: 1 h p.i.
Procedure: as §1, §2

In the case of `O=C(O)CC[C@H](NC(=O)N[C@@H](CCCCNC(=O)[C@@H](Cc1ccc2ccccc2c1)NC(=O)C1CCC(CNC(=O)CN2CCN3CCN(CC2)CC(=O)[O][Al]([18F])[O]C(=O)C3)CC1)C(=O)O)C(=O)O` (some centres unmarked) [[^18F]AlF-PSMA-BCH], the “22Rv1 tumor* uptake” value [1] is reported as 6.44 ± 1.78 %ID/g, the Blood uptake [1] is reported as 0.56 ± 0.19 %ID/g and the Bone uptake [1] is reported as 0.84 ± 0.39 %ID/g. The Brain uptake [1] was 0.14 ± 0.04 %ID/g, the Gall bladder uptake [1] was 6.62 ± 4.25 %ID/g and the Heart uptake [1] was 0.45 ± 0.10 %ID/g. For the same compound, the “Kidney* uptake” value [1] was 66.10 ± 18.80 %ID/g, the Liver uptake [1] was 0.47 ± 0.03 %ID/g and the Lung uptake [1] was 0.86 ± 0.25 %ID/g. The Muscle uptake [1] was 0.31 ± 0.10 %ID/g, the Small intestine uptake [1] was 0.78 ± 0.12 %ID/g and the Spleen uptake [1] was 1.33 ± 0.54 %ID/g. It also gave a Stomach uptake [1] of 0.41 ± 0.05 %ID/g.

For `N#C[C@@H]1CC(F)(F)CN1C(=O)CNC(=O)c1ccnc2ccc(OCCCN3CCN(C(=O)CN4CCN5CCN(CC4)CC(=O)[O][Al]([F])[O]C(=O)C5)CC3)cc12` [[^18F]FAPI-42, reference compound], the A549-FAP tumor uptake [2] was 5.25 ± 0.27 %ID/g, the Blood uptake [2] was 1.52 ± 0.22 %ID/g and the Bone uptake [2] was 7.29 ± 1.52 %ID/g. For the same compound, the Brain uptake [2] was 0.10 ± 0.01 %ID/g, the Gall bladder uptake [2] was 10.58 ± 0.83 %ID/g and the Heart uptake [2] was 0.76 ± 0.09 %ID/g. It also gave a Kidney uptake [2] of 1.86 ± 0.11 %ID/g, a Liver uptake [2] of 0.83 ± 0.19 %ID/g and a Lung uptake [2] of 0.96 ± 0.11 %ID/g. For the same compound, the Muscle uptake [2] was 1.86 ± 0.32 %ID/g, the Small intestine uptake [2] was 2.85 ± 0.91 %ID/g and the Spleen uptake [2] was 0.64 ± 0.04 %ID/g. The Stomach uptake [2] was 0.56 ± 0.03 %ID/g.
